Broadly, the AUC(0-t) is the area under the concentration-time curve up to a stated or last time point. Low values mean low exposure, high ones high exposure. The term Cmax denotes the peak of the concentration-time curve. Usually EC50 stands for the concentration at which the effect is half-maximal.

Data set [1] is described as follows: Mouse pharmacokinetics study. Type of data set: in vivo. Conditions: BALB/c mice, 10 mg/kg oral gavage, 5% DMS/95% PEG400, plasma. On the procedure: Formulated compounds were administered intravenously or orally via gavage to BALB/c mice. Typically, at 0.167, 0.5, 1, 2, 4, 6, 12, and 24 hours post-dose, blood was collected and processed to plasma by centrifugation and stored at −80° C. until analysis. Internal standard was added to each sample prior to protein precipitation with acetonitrile or TCA. The precipitates were filtered through a filter plate and the samples were analyzed by LC/MS/MS. A standard curve was prepared in plasma from typically from 1.0 ng/mL to 3000 ng/mL and processed in the same manner as the samples. Sample analysis was typically performed on a suitable LC/MS/MS system fitted with an analytical UPLC column and compounds eluted from the analytical column with a gradient from 30-95% 0.1% formic acid (v/v) in ACN: 0.1% formic acid (v/v) in water. Mass spectrometric detection of test compound and the internal standard was performed by […] in positive mode. The pharmacokinetics of each compound were analyzed by Phoenix WinNonlin software (Pharsight, St. Louis, Mo.) via noncompartmental analysis. FIG. 4 depicts pharmacokinetic (PK) properties of isomer 1 of compound I-186 following dosing in BALB/c mice.

The test system of data set [2] is TEAD. The data set can be described thus: TEAD reporter assay (Hippo Pathway TEAD Reporter - MCF7 cell line, luciferase). It counts as cell-based, human. The note with it: read-out: TEAD Reporter Assay EC50. From the text: TEAD inhibition can be assayed using Hippo Pathway TEAD Reporter—MCF7 Cell Line (BPS Bioscience, Catalog #: 60618).
The TEAD Reporter—MCF7 cell line contains the firefly luciferase gene under the control of TEAD responsive elements stably integrated into the human breast cancer cell line, MCF7. Inside the cells, basal unphosphorylated YAP/TAZ remains in the nucleus and induces the constitutive expression of luciferase reporter. The cell line is validated for the inhibition of the expression of luciferase reporter by the activators of the Hippo pathway.
• 1) Harvest TEAD Reporter—MCF7 cells from culture in growth medium and seed cells at a density of 35,000 cells per well into white clear-bottom 96-well microplate in 45 μl of assay medium. • 2) Incubate cells at 37° C. in a CO2 incubator for overnight. • 3) Dilute the activators (H2O2 or okadaic acid) stock in assay medium. Add 5 μl of diluted activators to the wells. The final concentration of DMSO in assay medium is 0.1%. • 4) Add 5 μl of assay medium with same concentration of DMSO without activator to control wells. • 5) Add 50 μl of assay medium with DMSO to cell-free control wells (for determining background luminescence). • 6) Set up each treatment in at least triplicate. • 7) Incubate cells at 37° C. in a CO2 incubator for 5-6 hours. • 8) Perform luciferase assay using the ONE-Step™ Luciferase Assay System following the protocol provided: Add 100 μl of ONE-Step™ Luciferase reagent per well and rock at room temperature for ˜15 minutes. Measure luminescence using a luminometer. • 9) Data Analysis: Obtain the background-subtracted luminescence by subtracting the average background luminescence (cell-free control wells) from the luminescence reading of all wells.
(§1) Certain compounds were tested in TEAD reporter assay, and in H226 and H28. A: EC50<0.1 uM; B: 0.1 uM≤EC50≤0.5 uM; C: EC50>0.5 uM.

Data set [3] concerns H226. The experiment in a line: Anti-proliferation assay in H226 cells. It counts as cell-based, human. Conditions: read-out: H226 EC50. On the procedure:
as §1
(§2) Individual cell lines were grown in medium according to supplier instructions and seeded into 96-well plates at a density that ensured logarithmic growth over 72 hours. TEAD inhibitor compounds were administered to cells at a top concentration of 10 μm and subsequently a 10 point 3-fold serial dilution was conducted. After 72 hours, proliferation was quantified using Cell TITERGLO™ (Promega, Inc.) and compared to vehicle control. IC50 and EC50 values were generated using XLFit curve fitting software.

For data set [4], the system named is H28. The experiment in a line: Anti-proliferation assay in H28 cells. Type of data set: cell-based. Conditions: Homo sapiens, NCI-H28. On the procedure:
as §1, §2
The effect of isomer 2 of compound I-12 on cell proliferation is dependent on the presence of a Hippo/NF2 mutation. No effect is seen by isomer 2 of compound I-12 on the NF2 wild-type H28 cell line.

Where [5] appears, read: Homo sapiens, MCF7, TEAD Reporter - MCF7 cells.
Where [6] appears, read: Homo sapiens, NCI-H226, H226 cells.

Like-named read-outs stand apart in the source and are kept apart here.

Consider `C=CC(=O)NC1CCN(Cc2ccc(C(F)(F)F)cc2)c2ccccc21` (stereo in doubt) [Compound I-203, N-[(4R)-1-[[4-(Trifluoromethyl)phenyl]methyl]-3,4-dihydro-2H-quinolin-4-yl]prop-2-enamide], for which, in data set [1] (mouse), the exposure AUC(0-t) turned out to be 275 ng·h/mL. Also, the peak concentration (Cmax) in data set [1] (mouse, read-out: Cmax) stood at 63.3 ng/mL.
For the compound `C=CC(=O)Nc1ccc(C)c(Nc2ccc(Cl)cc2)c1` [Compound I-27, N-[3-(4-Chloroanilino)-4-methyl-phenyl]prop-2-enamide], the values for the half-maximal effective concentration (EC50) in data set [2] (setting [5]), in data set [3] (setting [6]) and in data set [4] were below 100 nM, below 100 nM and above 500 nM, respectively.
As for `C=CC(=O)Nc1cccc(C)c1Oc1ccc(Cl)cc1` [Compound I-28, N-[2-(4-Chlorophenoxy)-3-methyl-phenyl]prop-2-enamide], the EC50 in data set [2] (setting [5]), in data set [3] (setting [6]) and in data set [4] was above 500 nM each time.
Turning to `C=CC(=O)Nc1cc(Oc2cccc(C(F)(F)F)c2)c2ccccc2c1` [Compound I-29, N-[4-[3-(Trifluoromethyl)phenoxy]-2-naphthyl]prop-2-enamide], the EC50 in data set [2] (setting [5]) is below 100 nM; in data set [3] (setting [6]), 100 to 500 nM; in data set [4], above 500 nM.
In the case of `C=CC(=O)Nc1ccc(C)c(Oc2cncc(C(F)(F)F)c2)c1` [Compound I-30, N-[4-Methyl-3-[[5-(trifluoromethyl)-3-pyridyl]oxy]phenyl]prop-2-enamide], the EC50 was below 100 nM in data set [2] (setting [5]), below 100 nM in data set [3] (setting [6]) and above 500 nM in data set [4].
For the compound `C=CC(=O)Nc1ccc(C)c(Oc2cc(C(F)(F)F)ccn2)c1` [Compound I-31, N-[4-methyl-3-[[4-(trifluoromethyl)-2-pyridyl]oxy]phenyl]prop-2-enamide], the values for the EC50 in data set [2] (setting [5]), in data set [3] (setting [6]) and in data set [4] were below 100 nM, below 100 nM and above 500 nM, respectively.
On to `C=CC(=O)Nc1ccc(C)c(Nc2cccc(C(F)(F)F)c2)c1` [Compound I-33, N-[4-Methyl-3-[3-(trifluoromethyl)anilino]phenyl]prop-2-enamide], for which the EC50 was below 100 nM in data set [2] (setting [5]), below 100 nM in data set [3] (setting [6]) and above 500 nM in data set [4].
Take `C=CC(=O)Nc1ccc(C)c(N(C)c2cccc(C(F)(F)F)c2)c1` [Compound I-35, N-[4-methyl-3-[N-methyl-3-(trifluoromethyl)anilino]phenyl]prop-2-enamide]: the concentration giving a half-maximal response (EC50) is below 100 nM in data set [2] (setting [5]), below 100 nM in data set [3] (setting [6]) and above 500 nM in data set [4].
In the case of `C=CC(=O)Nc1ccc(Br)c(Nc2cccc(C(F)(F)F)c2)c1` [Compound I-36, N-[4-bromo-3-[3-(trifluoromethyl)anilino]phenyl]prop-2-enamide], the figures for the EC50 in data set [2] (setting [5]), in data set [3] (setting [6]) and in data set [4] were below 100 nM, below 100 nM and above 500 nM, respectively.
Consider `C=CC(=O)Nc1ccc(-c2cn(C)cn2)c(Nc2cccc(C(F)(F)F)c2)c1` [Compound I-40, N-[4-(1-methylimidazol-4-yl)-3-[3-(trifluoromethyl)anilino]phenyl]prop-2-enamide], for which the values for the EC50 in data set [2] (setting [5]), in data set [3] (setting [6]) and in data set [4] were below 100 nM, below 100 nM and above 500 nM, respectively.
In the case of `C=CC(=O)NC1CCN(Cc2ccccc2C(F)(F)F)CC1` [Compound I-49, N-[1-[[2-(trifluoromethyl)phenyl]methyl]-4-piperidyl]prop-2-enamide], the EC50 in data set [2] (setting [5]), in data set [3] (setting [6]) and in data set [4] was above 500 nM throughout.
For the compound `C=CC(=O)NC1CCN(S(=O)(=O)c2ccc(C(F)(F)F)cc2)CC1` [Compound I-50, N-[1-[4-(trifluoromethyl)phenyl]sulfonyl-4-piperidyl]prop-2-enamide], the EC50 in data set [2] (setting [5]), in data set [3] (setting [6]) and in data set [4] was above 500 nM each time.
In the case of `C=CC(=O)NC1CCN([C@H](C)c2ccc(C(F)(F)F)cc2)CC1` [Compound I-62, N-[1-[(1R)-1-[4-(Trifluoromethyl)phenyl]ethyl]-4-piperidyl]prop-2-enamide], the EC50 in data set [2] (setting [5]) and in data set [3] (setting [6]) was below 100 nM throughout. This compound also yielded an AUC(0-t) in data set [1] (mouse) of 368 ng·h/mL. For the same compound, in data set [1] (mouse, read-out: Cmax), the Cmax worked out at 345 ng/mL.
With `C=CC(=O)NC1[C@H]2CN(Cc3ccc(C(F)(F)F)cc3)C[C@@H]12` (stereo partly drawn) [Compound I-69, N-[(1R,5S)-3-[[4-(Trifluoromethyl)phenyl]methyl]-3-azabicyclo[3.1.0]hexan-6-yl]prop-2-enamide], the EC50 in data set [2] (setting [5]) and in data set [3] (setting [6]) was below 100 nM throughout. Further, the exposure AUC(0-t) in data set [1] (mouse) worked out at 1240 ng·h/mL. Also, the Cmax in data set [1] (mouse, read-out: Cmax) is 1160 ng/mL.
Consider `C=CC(=O)NC1(C)CCN(Cc2ccc(C(F)(F)F)cc2)CC1` [Compound I-73, N-[4-methyl-1-[[4-(trifluoromethyl)phenyl]methyl]-4-piperidyl]prop-2-enamide], for which the 50% effective concentration (EC50) in data set [2] (TEAD Reporter - MCF7 cells) and in data set [3] (H226 cells) was above 500 nM each time.
For `FC(F)(F)c1ccc(CN2CCC3(CC2)CC(Br)=NO3)cc1` [Compound I-149, 3-bromo-8-[[4-(trifluoromethyl)phenyl]methyl]-1-oxa-2,8-diazaspiro[4.5]dec-2-ene], the EC50 in data set [2] (setting [5]) is above 500 nM; in data set [3] (setting [6]), 100 to 500 nM.
In the case of `C=CC(=O)N[C@H]1[C@@H]2CCN(Cc3ccc(C(F)(F)F)cc3)C[C@@H]21` [Compound I-208, N-[(1R,6R,7S)-4-[[4-(trifluoromethyl)phenyl]methyl]-4-azabicyclo[4.1.0]heptan-7-yl]prop-2-enamide], the area under the curve AUC(0-t) in data set [1] (mouse) was 226 ng·h/mL. Besides, in data set [1] (mouse, read-out: Cmax), the Cmax was found to be 318 ng/mL.
Take `C=CC(=O)N1CC[C@@H](NCc2ccc(C(F)(F)F)cc2)C1` [Compound I-211, 1-[(3R)-3-[[4-(trifluoromethyl)phenyl]methylamino]pyrrolidin-1-yl]prop-2-en-1-one]: in data set [1] (mouse), the AUC(0-t) came to 1260 ng·h/mL. For the same compound, the Cmax in data set [1] (mouse, read-out: Cmax) was 1250 ng/mL.
In the case of `C=CC(=O)N1CC[C@@H](NCc2cccc(C(F)(F)F)c2)C1` [Compound I-386, 1-[(3R)-3-[[3-(Trifluoromethyl)phenyl]methylamino]pyrrolidin-1-yl]prop-2-en-1-one], the EC50 in data set [2] (setting [5]) and in data set [3] (setting [6]) was 100 to 500 nM in each case.
Turning to `C=CC(=O)NC1CCN(Cc2ccc(SC(F)(F)F)cc2)CC1` [Compound I-387], the EC50 in data set [2] (setting [5]) and in data set [3] (setting [6]) was above 500 nM throughout.
With `C=CC(=O)NC1CCN(Cc2ccc(OC(F)(F)F)cc2)CC1` [Compound I-388], the EC50 in data set [2] (setting [5]) and in data set [3] (setting [6]) was above 500 nM throughout.
Turning to `C=CC(=O)NC1CCN(Cc2ccc(-c3ccccc3)cc2)CC1` [Compound I-389], the half-maximal effective concentration (EC50) in data set [2] (setting [5]) and in data set [3] (setting [6]) was above 500 nM throughout.
As to `C=CC(=O)NC1CCN(Cc2ccc(C#N)cc2)CC1` [Compound I-393], the concentration for a half-maximal effect (EC50) in data set [2] (setting [5]) and in data set [3] (setting [6]) was above 500 nM each time.
With `C=CC(=O)NC1CCN(Cc2ccc(Cl)cc2)CC1` [Compound I-394], the EC50 in data set [2] (setting [5]) and in data set [3] (setting [6]) was 100 to 500 nM in each case.
Regarding `C=CC(=O)NC1CCN(Cc2ccc(C(C)(C)C)cc2)CC1` [Compound I-395], the concentration giving a half-maximal response (EC50) in data set [2] (setting [5]) and in data set [3] (setting [6]) was above 500 nM in each case.
For `C=CC(=O)NC1CCN(Cc2ccc(C3CC3)cc2)CC1` [Compound I-397], the half-maximal effective concentration (EC50) was above 500 nM in data set [2] (setting [5]) and 100 to 500 nM in data set [3] (setting [6]).
In data set [1], `C=CC(=O)Nc1ccc(C)c(Oc2ccc(Cl)cc2)c1` [Compound P-5] displayed an AUC0-last of 397 ng·h/mL and a Cmax of 246 ng/mL.

(Values after patent US11458149B1, “TEAD inhibitors and uses thereof” (Ikena Oncology, Inc., priority 2019, dated 2022).)
